Data on two compounds can be found in patent US10525004B2, “Epithelial delivery” (BIOCOMPATIBLES UK LIMITED, priority 2008, dated 2020).

The conditions of data set [1]: cited from earlier work.
Data set [2] concerns intracellular P. gingivalis. Put plainly: Intracellular killing of P. gingivalis in H357 keratinocytes (invasion assay, colony count). The format is cell-based. Conditions: H357 cells infected at MOI 100; metronidazole 0.01-10 μg/ml with 2 mg/ml vesicles; FIG. 7. As to the method:
The polymer was prepared as in Example 9a. The film was dissolved by adding 2 ml of sterilized PBS (pH2) until the solution was clear. The concentration of polymer was 10 mg/ml. This was then sterilized using a 0.2 μm filter. The pH of the solution was adjusted to 7.4 with sterilized 1M NaOH and the vesicles purified by gel filtration chromatography using sterilized sepharose agar 4B (Sigma, Poole, Dorset, UK). […] After that, 200 μl of the medium was collected for H357 viability test using the LDH assay. Moreover, keratinocytes in a different plate treated in an identical manner was tested for H357 viability using propidium iodide and Hoechst. […] Serial dilutions of the lysate were used to determine colony count. […] This was then sonicated for 30 minutes to improve encapsulation. The mixture was not separated by size-exchange chromatography, so the free metronidazole was in equilibrium with the encapsulated metronidazole. P. gingivalis (ATCC 33277) at MOI 100 was used to infect H357 cells for 90 min. […] Saponin was then used to release intracellular bacteria from H357 cells and the number of intracellular P. gingivalis measured by counting the colonies from serial dilutions.

The subject of another data set is H357. The note with it: LDH assay; all concentrations; FIG. 8.

Take `Cc1ncc([N+](=O)[O-])n1CCO` [metronidazole, Metronidazole]: the “log P” value in data set [1] is “negative”.

In the case of gentamycin, the “recovered intracellular P. gingivalis (killing of intracellular bacteria)” value in data set [2] is on record as “not able to kill the intracellular P. gingivalis”. In addition, the “viability of H357” value in the data set with H357 is on record as “not significantly different”.
